Assay results taken from patent publication US20110312877A1, “ENGINEERED TUNABLE NANOPARTICLES FOR DELIVERY OF THERAPEUTICS, DIAGNOSTICS, AND EXPERIMENTAL COMPOUNDS AND RELATED COMPOSITIONS FOR THERAPEUTIC USE” (APARNA BIOSCEIENCES, priority 2008, published 2011).
Where no end group is shown, it is not given here.

System: HRP-labeled IgG
Test: PEI-PEG-Peptide antibody binding and free peptide competition (ELISA)
Settings: peptide 0 added after antibody, lowering competition (FIG. 1C)
Experimental: PPP0 (Pei-PEG-Peptide0) was diluted into the coating buffer (1×TBS, pH7.2) (final concentration: 30 μg/ml) and immediately coated 96-well microplate with 100 µl per well of the diluted PPP0 solution. The plates were sealed and incubated overnight at room temperature.
Wells were aspirated and washed with 300 µl of washing buffer (1×TBS containing 0.1% Tween 20, pH 7.4). The procedure was repeated two more times for a total of three washes
In the next step plates were blocked by adding 300 µl 1% BSA in TBS and incubating for two hours.
[…] Next, 50 µl of HRP-labeled IgG (˜3 ug/ml in binding buffer) was added to each of the wells. The plate was shaken on a horizontal microplate shaker at 500±50 rpm for 10 rain and then incubate at 37° C. for 2 hours. After incubation, wells were washed 5 times with washing buffer to remove the competitors and HRP-IgG.
150 µl per well of freshly prepared substrate solution was added and incubated for 25-30 min at room temperature. The reaction was stopped by adding 70 µl of 2NH2SO4 into each well. Plate was gently tapped to ensure a thorough mixing. Optical density of each well was measured immediately, using a microplate reader set to 450 nm. Data was analyzed GraphPad Prism software.

off-rate for antibody dissociation from PPP: long
Substance: PPP: Fc binding peptide (HWRGWVC)-PEG-PEI conjugate made with SCM-PEG-Mal (3400) and PEI 2K (also: conjugated to PEG(3400)-PEI 2K via SCM-PEG-Mal, site not given here)
